The numbers were not newly measured in patent US6830897B2, “High throughput screen for reducing drug candidate attrition” (Pfizer Inc., priority 2000, dated 2004), which cites them from elsewhere.

For the series the following is noted: toxicities linked to formation of reactive metabolites; literature reference in brackets.
For the molecule `CC(=O)Nc1ccc(O)cc1` [Acetaminophen], the “Toxicity (Ref.)” value is “Hepato- toxicity (11)”.

Regarding `COc1ccc(O)cc1` [4-hydroxyanisole], the “Toxicity (Ref.)” value is reported as “Hepato- toxicity (15)”.

Turning to `CN1CCN(C2=Nc3cc(Cl)ccc3Nc3ccccc32)CC1` [Clozapine], the “Toxicity (Ref.)” value is recorded as “Neutrophil Cyto-toxicity (12)”.

For the molecule `O=C1NC(=O)C(c2ccccc2)(c2ccccc2)N1` [Phenytoin], the “Toxicity (Ref.)” value is reported as “Hepato- toxicity (18)”.

Regarding `Cc1cccc(O)c1` [m-Cresol], the “Toxicity (Ref.)” value is listed as “Circulatory collapse, death (16)”.

Take `CCCC(CCC)C(=O)O` [Valproic acid]: the “Toxicity (Ref.)” value was “Hepato- toxicity (17)”.

For the molecule `NC(=O)N1c2ccccc2C=Cc2ccccc21` [Carbamazepine], the “Toxicity (Ref.)” value is listed as “Hyper- sensitivity (13)”.

As for `COc1ccc2c(c1)c(CC(=O)O)c(C)n2C(=O)c1ccc(Cl)cc1` [Indomethacin], the “Toxicity (Ref.)” value is “Neutrophil toxicity (14)”.

As for `CC(C)c1ccc(O)cc1` [4-isopropylphenol], the “Toxicity (Ref.)” value is listed as “Circulatory collapse, death (16)”.
